Like-named read-outs stand apart in the source and are kept apart here. Where a SMILES comes first, the peptide text is derived from it. The star is where a group is joined. Cbz = O=C(OCc1ccccc1)*
Columns and labels:
HCT-15 cells [1] = assay: GFP-L7a expression in treated HCT-15 cells (FIG. 8); assay type: cell-based, human
Source text: FIG. 8 contains pictures of cells. HCT-15 cells, grown on 35 mm glass bottom dishes, were transfected with the GFP-L7a vector pCMV6-AC-GFP to express GFP-L7a protein.

HCT-15 cells [2] = tested on: HCT-15 cells
Experimental: (§1) To further assess protein biosynthesis in the perinuclear area and ribosome biogenesis, several chemical agents were tested on cellular growth and survival.
(§2) All the tested compounds were dissolved in dimethylsulfoxide (DMSO).
(§3) The human colorectal adenocarcinoma cell lines: HCT-15 was purchased from ATCC. Cultures of cells maintained in DMEM/F12 medium containing 10% FBS and antibiotics, at 37° C. with 5% CO2. For cell treatments, cells were grown at 80% confluence in complete medium.

HCT-15 cells [3] = assay: Cell survival assay using MTT (toxicity study, FIG. 7); details: for toxicity (cell survival, MTT): at the applied concentrations, compounds dissolved in DMSO; for cellular proliferation: prolonged 24-hour treatments
Experimental: as §1, §2, §3

[4] = HCT-15 cells transfected with GFP-L7a vector pCMV6-AC-GFP

| Compound | nucleolar hypertrophy (GFP-L7a) (HCT-15 cells [1]; [4]) | perinuclear protein synthesis (GFP-L7a) (HCT-15 cells [1]; [4]) | toxicity (cell survival, MTT) (HCT-15 cells [2]) | toxicity (cell survival, MTT) (HCT-15 cells [3]) | cellular proliferation (HCT-15 cells [3]) | perinuclear protein synthesis (GFP-L7a) (HCT-15 cells [1]) |
| --- | --- | --- | --- | --- | --- | --- |
| O=C1Nc2cc(Br)ccc2/C1=C1/Nc2ccccc2/C1=N\O [Bio, (2′Z,3′E)-6-Bromoindirubin-3′-oxime] | induced | induced | more toxic than the other compounds |  |  |  |
| COC1=C2C[C@@H](C)C[C@H](OC)[C@H](O)[C@@H](C)/C=C(\C)[C@H](OC(N)=O)[C@@H](OC)/C=C\C=C(/C)C(=O)NC(=CC1=O)C2=O [Geldanamycin, (4E,6Z,8S,9S,10E,12S,13R,14S,16R)-13-hydroxy-8,14,19-trimethoxy-4,10,12,16-tetramethyl-3,20,22-trioxo-2-azabicyclo[16.3.1]docosa-1(21),4,6,10,18-pentaen-9-yl carbamate] | induced | induced |  | no toxicity | inhibited cellular proliferation |  |
| CC(C)C[C@@H](C=O)NC(=O)[C@H](CC(C)C)NC(=O)[C@H](CC(C)C)NC(=O)OCc1ccccc1 [MG132, Benzyl N-[(2S)-4-methyl-1-[[(2S)-4-methyl-1-[[(2S)-4-methyl-1-oxopentan-2-yl]amino]-1-oxopentan-2-yl]amino]-1-oxopentan-2-yl]carbamate] (Cbz-Leu-Leu-Leu-aldehyde) | induced | induced |  | no toxicity | inhibited cellular proliferation |  |
| CCc1cncnc1N1CCN(Cc2nc3cc(C(F)(F)F)ccc3[nH]2)CC1 [PF4708671, 2-((4-(5-Ethylpyrimidin-4-yl)piperazin-1-yl)methyl)-5-(trifluoromethyl)-1H-benzo[d]imidazole] | induced | induced |  | no toxicity |  |  |
| C=C(C)[C@H]1Cc2c(ccc3c2O[C@@H]2COc4cc(OC)c(OC)cc4[C@@H]2C3=O)O1 [Rotenone, (2R,6aS,12a5)-1,2,6,6a,12,12a-hexahydro-2-isopropenyl-8,9-dimethoxychromeno[3,4-b]furo(2,3-h)chromen-6-one] | induced | induced | no toxicity |  | inhibited cellular proliferation |  |
| CC(C)n1nc(-c2cc3cc(O)ccc3[nH]2)c2c(N)ncnc21 [pp242, 2-(4-amino-1-isopropyl-1H-pyrazolo[3,4-d]pyrimidin-3-yl)-1H-indol-5-ol] |  |  | no toxicity |  |  | induced |

Source: US11428693B2, “Method of high throughput screening of chemical compounds suppressing nucleolar hypertrophy” (Baylor College of Medicine, priority 2017, dated 2022)
